Results: patent US10556898B2, “Indazolyl-1,2,4-thiadiazolamines and related compounds for inhibition of Rho-associated protein kinase and the treatment of disease” (Lycera Corporation, priority 2016, dated 2020)
Read-outs that look alike come from different tables or passages of the source.

Key:
[1] = target: T1, ROCK2 (Homo sapiens, UniProt O75116); assay: Cell-Based Assay, ROCK2 (HAP1 knockout cells, phospho-MYPT1 Thr853 ELISA); details: read-out: Results from Cell-Based Assay IC50 (μM) ROCK2
T1 construct: endogenous in cells; host or cells: HAP1 knockout cells
Procedure: (§1) Part II—Procedure for Determining ROCK Inhibition Ability of Test Compounds Using a Cell-Base Assay
(§2) The Cell-Based Assay for determining ROCK inhibition ability of test compounds utilized a genetically modified HAP1 cell line engineered to eliminate expression of either ROCK1 or ROCK2. In the procedure, HAP1 knockout cells are grown in Iscove's Modified Dulbecco's Medium that is additionally supplemented with 10% fetal bovine and 1x antibiotic-antimycotic mixture. Cells are plated in 96 well tissue culture plates at 1×10^5 cells/well (100 μL, of cells at 1×10^6/mL). Test compounds are solubilized in DMSO and diluted into the same media used to grow the cells. A 100 μL, aliquot of each compound dilution in media is added to each well containing the HAP1 cells and incubated at 37° C. for 30 minutes. Following compound incubation, the cells are pelleted by centrifugation at 1800 rpm for 5 minutes at 4° C. Media is removed from the cell pellet and the cells lysed and de-salted. An 80 μL, aliquot of each cell lysate is added to a single well of a 96-well high binding ELISA plate which has been pre-coated with a MYPT1 capture antibody and incubated at 4° C. overnight. The following day the ELISA plate is washed 4× with 0.05% Tween-20 in PBS. After washing, an anti-phospho-MYPT1 (Thr853) antibody is added and allowed to bind for 1 hour at room temperature. The wash step is repeated, and then an anti-rabbit HRP detection antibody is added and allowed to incubate at room temperature for 1 hour. The wash step is then repeated and 100 μL/well 1-Step™ Ultra TMB substrate is added to the ELISA plate and allowed to develop for approximately 5 minutes. The reaction is stopped by addition of H2SO4. Absorbance is read at 450 OD. Data is analyzed using GraphPad Prism software to calculate the 50% inhibitory concentration of test compound (IC50).

[2] = target: T2, GST-tagged human ROCK2 catalytic domain 1-553 (Homo sapiens, UniProt O75116); assay: Isolated Enzyme Assay, ROCK2 (LANCE Ultra ULight-CREBtide FRET); format: biochemical; details: 30 μM highest concentration tested, read-out: Results from Isolated Enzyme Assay IC50 (μM) ROCK2
T2 construct: GST-tagged human ROCK2 catalytic domain 1-553 from Carna Biosciences (Cat #01-110); purchased Carna Biosciences 01-110; host or cells: baculovirus expression system
Procedure: (§3) Exemplary compounds were tested for ability to inhibit Rho-associated protein kinase isoform 1 (ROCK1) and Rho-associated protein kinase isoform 2 (ROCK2). Assay procedures and results are described below.
(§4) Part I—Procedure for Determining ROCK Inhibition Ability of Test Compounds Using an Isolated Enzyme Assay
(§5) Protein constructs were purified from a baculovirus expression system. The peptide substrate was fluorescent LANCE® Ultra ULight-CREBtide: […] (PerkinElmer, # TRF0107-D). Kinase reactions were carried out in a 10 μL volume in 384-well plates: 50 nM ULight-CREBtide substrate, 2 nM constitutively active ROCK1 or ROCK2 kinase, and test compound in DMSO (or DMSO only for controls) were diluted into assay buffer containing 50 mM Tris-HCl (pH=7.5), 10 mM MgCl2, 1 mM EGTA, 0.01% Tween-20, and 2 mM DTT such that the final concentration of DMSO was 0.5%. After a 90 minute incubation at room temperature on a shaker table, the kinase reaction was stopped by addition of 10 mM EDTA, and phosphorylation of the substrate was detected by adding 1 nM LANCE® Ultra Europium-anti-phospho-CREB (ser133) antibody (PerkinElmer, # TRF0200-D) and incubating for 60 minutes on a shaker at room temperature. The fluorescence resonance energy transfer (FRET) signals were read and analyzed on an Envision™ 2103 Multilabel Reader (Perkin Elmer). The concentration of test compound required to inhibit substrate phosphorylation by 50% (the IC50) was calculated by non-linear regression using GraphPad PRIZM.

[3] = target: T3, ROCK1 (Homo sapiens, UniProt Q13464); assay: Cell-Based Assay, ROCK1 (HAP1 knockout cells, phospho-MYPT1 Thr853 ELISA); details: read-out: Results from Cell-Based Assay IC50 (μM) ROCK1
T3 construct: endogenous in cells; host or cells: HAP1 knockout cells
Procedure: as §1, §2

[4] = target: T4, GST-tagged human ROCK1 catalytic domain 1-477 (Homo sapiens, UniProt Q13464); assay: Isolated Enzyme Assay, ROCK1 (LANCE Ultra ULight-CREBtide FRET); format: biochemical; details: 30 μM highest concentration tested, read-out: Results from Isolated Enzyme Assay IC50 (μM) ROCK1
T4 construct: human ROCK1 catalytic domain 1-477 from Carna Biosciences (cat #01-109); purchased Carna Biosciences 01-109; host or cells: baculovirus expression system
Procedure: as §3, §4, §5

[5] = phospho-MYPT1, 30 μM highest concentration tested

T3 sequence (Q13464 whole entry): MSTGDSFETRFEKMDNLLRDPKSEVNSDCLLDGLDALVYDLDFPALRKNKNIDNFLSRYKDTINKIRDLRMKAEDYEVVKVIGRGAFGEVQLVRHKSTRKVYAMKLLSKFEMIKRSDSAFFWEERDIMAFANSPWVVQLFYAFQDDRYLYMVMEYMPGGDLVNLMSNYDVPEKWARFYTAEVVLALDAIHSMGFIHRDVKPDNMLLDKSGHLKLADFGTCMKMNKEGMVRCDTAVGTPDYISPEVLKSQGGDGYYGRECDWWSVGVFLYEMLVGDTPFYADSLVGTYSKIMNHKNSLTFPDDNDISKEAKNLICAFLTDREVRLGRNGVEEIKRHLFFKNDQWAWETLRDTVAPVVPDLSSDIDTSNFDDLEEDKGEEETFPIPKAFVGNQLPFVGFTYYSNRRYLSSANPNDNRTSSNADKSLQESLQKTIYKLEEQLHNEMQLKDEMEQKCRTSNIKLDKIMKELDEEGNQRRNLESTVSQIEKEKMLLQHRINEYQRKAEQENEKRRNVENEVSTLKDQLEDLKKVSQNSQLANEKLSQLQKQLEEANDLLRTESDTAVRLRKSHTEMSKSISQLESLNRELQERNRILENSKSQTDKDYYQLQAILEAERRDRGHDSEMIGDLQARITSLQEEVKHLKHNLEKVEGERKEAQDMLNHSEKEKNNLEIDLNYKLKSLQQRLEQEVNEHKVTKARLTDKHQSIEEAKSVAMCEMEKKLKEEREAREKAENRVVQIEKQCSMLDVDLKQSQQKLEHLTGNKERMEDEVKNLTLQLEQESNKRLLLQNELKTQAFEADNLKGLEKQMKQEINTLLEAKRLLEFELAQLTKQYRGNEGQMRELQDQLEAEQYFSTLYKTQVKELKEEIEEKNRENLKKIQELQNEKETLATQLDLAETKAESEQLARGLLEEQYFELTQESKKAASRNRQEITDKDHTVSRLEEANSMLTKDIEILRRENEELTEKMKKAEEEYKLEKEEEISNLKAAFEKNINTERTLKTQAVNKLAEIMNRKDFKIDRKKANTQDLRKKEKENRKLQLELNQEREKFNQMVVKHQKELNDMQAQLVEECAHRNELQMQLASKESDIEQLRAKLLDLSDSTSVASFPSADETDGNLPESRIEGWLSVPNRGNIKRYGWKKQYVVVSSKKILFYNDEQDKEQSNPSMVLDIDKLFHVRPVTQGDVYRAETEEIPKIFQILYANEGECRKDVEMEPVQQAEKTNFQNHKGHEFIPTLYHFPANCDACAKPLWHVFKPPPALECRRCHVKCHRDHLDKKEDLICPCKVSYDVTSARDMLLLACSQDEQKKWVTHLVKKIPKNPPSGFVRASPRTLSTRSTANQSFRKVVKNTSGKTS
T4 sequence (Q13464 1-477): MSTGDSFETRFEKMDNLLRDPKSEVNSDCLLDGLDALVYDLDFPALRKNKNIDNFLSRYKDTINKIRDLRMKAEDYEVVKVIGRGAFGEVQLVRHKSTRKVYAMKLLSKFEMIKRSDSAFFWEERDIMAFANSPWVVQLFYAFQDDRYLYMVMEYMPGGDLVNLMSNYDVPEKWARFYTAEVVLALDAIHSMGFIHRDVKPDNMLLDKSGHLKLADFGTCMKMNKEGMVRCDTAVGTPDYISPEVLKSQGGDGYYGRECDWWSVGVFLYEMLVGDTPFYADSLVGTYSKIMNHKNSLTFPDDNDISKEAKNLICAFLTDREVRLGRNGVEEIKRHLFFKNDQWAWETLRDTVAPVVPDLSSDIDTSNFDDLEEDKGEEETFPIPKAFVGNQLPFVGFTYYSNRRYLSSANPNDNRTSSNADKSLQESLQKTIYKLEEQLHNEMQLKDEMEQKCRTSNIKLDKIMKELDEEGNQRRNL
T2 sequence (O75116 1-553): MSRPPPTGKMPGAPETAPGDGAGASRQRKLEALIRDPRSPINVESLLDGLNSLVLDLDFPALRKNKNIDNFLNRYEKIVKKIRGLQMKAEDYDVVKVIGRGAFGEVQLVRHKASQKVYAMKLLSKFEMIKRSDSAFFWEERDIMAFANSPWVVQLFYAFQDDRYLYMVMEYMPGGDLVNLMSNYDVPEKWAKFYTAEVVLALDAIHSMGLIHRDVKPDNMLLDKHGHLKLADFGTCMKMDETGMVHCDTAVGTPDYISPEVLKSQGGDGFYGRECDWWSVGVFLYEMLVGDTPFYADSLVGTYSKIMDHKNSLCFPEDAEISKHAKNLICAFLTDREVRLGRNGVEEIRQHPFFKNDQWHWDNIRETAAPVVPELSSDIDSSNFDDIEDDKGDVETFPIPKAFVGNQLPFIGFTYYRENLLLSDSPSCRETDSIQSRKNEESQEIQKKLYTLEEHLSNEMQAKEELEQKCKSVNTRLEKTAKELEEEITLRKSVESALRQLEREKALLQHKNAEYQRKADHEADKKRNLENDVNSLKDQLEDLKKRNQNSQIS
T1 sequence (O75116 whole entry): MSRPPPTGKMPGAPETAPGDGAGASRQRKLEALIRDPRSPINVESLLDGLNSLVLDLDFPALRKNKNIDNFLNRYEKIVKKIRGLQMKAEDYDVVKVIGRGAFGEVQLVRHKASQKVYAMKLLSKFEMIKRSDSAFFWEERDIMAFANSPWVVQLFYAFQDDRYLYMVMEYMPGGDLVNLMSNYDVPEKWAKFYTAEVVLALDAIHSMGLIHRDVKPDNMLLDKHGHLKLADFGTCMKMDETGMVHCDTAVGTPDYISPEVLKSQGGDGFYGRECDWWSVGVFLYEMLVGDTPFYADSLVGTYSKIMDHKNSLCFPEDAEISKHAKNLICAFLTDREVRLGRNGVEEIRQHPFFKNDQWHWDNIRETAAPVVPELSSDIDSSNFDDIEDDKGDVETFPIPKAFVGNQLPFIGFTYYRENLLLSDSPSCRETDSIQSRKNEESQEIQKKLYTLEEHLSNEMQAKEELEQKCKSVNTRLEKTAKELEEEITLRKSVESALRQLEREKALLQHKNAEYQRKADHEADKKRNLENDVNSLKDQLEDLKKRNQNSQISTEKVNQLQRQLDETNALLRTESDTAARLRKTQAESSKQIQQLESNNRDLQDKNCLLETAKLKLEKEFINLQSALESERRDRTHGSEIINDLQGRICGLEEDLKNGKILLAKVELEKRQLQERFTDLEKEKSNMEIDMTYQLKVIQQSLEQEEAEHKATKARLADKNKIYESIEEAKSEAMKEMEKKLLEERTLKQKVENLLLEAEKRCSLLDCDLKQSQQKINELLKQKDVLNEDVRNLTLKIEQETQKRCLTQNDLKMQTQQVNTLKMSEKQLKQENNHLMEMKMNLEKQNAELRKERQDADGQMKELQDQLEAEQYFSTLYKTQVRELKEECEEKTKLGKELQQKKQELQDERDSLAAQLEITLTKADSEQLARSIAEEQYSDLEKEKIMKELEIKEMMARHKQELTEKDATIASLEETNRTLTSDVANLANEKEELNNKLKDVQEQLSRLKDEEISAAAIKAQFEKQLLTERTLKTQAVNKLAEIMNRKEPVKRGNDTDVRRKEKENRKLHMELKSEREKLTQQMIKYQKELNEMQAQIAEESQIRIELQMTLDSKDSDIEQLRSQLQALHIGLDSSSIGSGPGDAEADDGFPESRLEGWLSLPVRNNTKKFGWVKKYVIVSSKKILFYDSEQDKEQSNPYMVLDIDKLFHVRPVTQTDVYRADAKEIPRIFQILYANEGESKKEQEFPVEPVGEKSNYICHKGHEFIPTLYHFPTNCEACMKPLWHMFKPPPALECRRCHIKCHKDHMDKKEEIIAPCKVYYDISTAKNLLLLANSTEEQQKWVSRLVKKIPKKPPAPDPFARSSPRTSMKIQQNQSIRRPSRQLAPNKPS

IC50 ([1]; class symbols) [µM]	IC50 ([2]; isolated enzyme assay) [µM]	IC50 ([4]; isolated enzyme assay) [µM]	IC50 ([1]; numeric bound) [µM]	Compound	further results
	< 1	> 30	> 10	Cn1cnc(C(=O)Nc2cc(-c3nsc(Nc4ccc5[nH]ncc5c4Cl)n3)ccn2)c1 [IV-29]	
1 to 15	> 30	> 30		COc1cccc(C(=O)Nc2cc(C)nc(-c3nsc(Nc4ccc5[nH]ncc5c4Cl)n3)c2)c1 [IV-44]	
	< 1	< 1	> 10	CC(=O)Nc1cc(-c2nsc(Nc3ccc4[nH]ncc4c3Cl)n2)cn(C)c1=O [IV-45]	
< 1	< 1	< 1		Cc1coc(-c2cc(CO)cc(-c3nsc(Nc4ccc5[nH]ncc5c4Cl)n3)c2)n1 [IV-68]	
	< 1	1 to 15	> 10	Cc1ncc(-c2nsc(Nc3ccc4[nH]ncc4c3Cl)n2)cc1NC(=O)c1ccnn1C [IV-69]	
1 to 15	< 1	< 1		Cn1ccnc1-c1cccc(-c2nsc(Nc3ccc4[nH]ncc4c3Cl)n2)c1 [IV-88]	
	< 1	< 1	> 10	Cc1cn2cccc(-c3nsc(Nc4ccc5[nH]ncc5c4Cl)n3)c2n1 [IV-89]	
	> 30	> 30	> 10	Cc1coc(-c2cncc(-c3nsc(Nc4ccc5[nH]ncc5c4Cl)n3)c2)n1 [IV-97]	
	> 30	> 30	> 10	Cc1cnc(-c2cncc(-c3nsc(Nc4ccc5[nH]ncc5c4Cl)n3)c2)o1 [IV-103]	
	> 30	> 30	> 10	Cc1cc(-c2nc(C)co2)cc(-c2nsc(Nc3ccc4[nH]ncc4c3Cl)n2)n1 [IV-105]	

Second part, the compound before the results:

Compound	IC50 ([1]; class symbols) [µM]	IC50 ([2]; isolated enzyme assay) [µM]	IC50 ([4]; isolated enzyme assay) [µM]	IC50 ([1]; numeric bound) [µM]	further results
Cn1nccc1C(=O)Nc1cccc(-c2nsc(Nc3ccc4[nH]ncc4c3Cl)n2)c1 [Compound A-3]					IC50 [1, 5]: < 1 µM; IC50 ([2]; isolated enzyme): < 1 µM; IC50 [3, 5]: 1 to 15 µM; IC50 ([4]; isolated enzyme): < 1 µM
Cc1ccncc1C(=O)Nc1cccc(-c2nsc(Nc3ccc4[nH]ncc4c3Cl)n2)c1 [Compound A-4]					IC50 [1, 5]: < 1 µM; IC50 ([2]; isolated enzyme): < 1 µM; IC50 [3, 5]: 1 to 15 µM; IC50 ([4]; isolated enzyme): > 30 µM
O=C(Nc1cccc(-c2nsc(Nc3ccc4[nH]ncc4c3Cl)n2)c1)c1cncs1 [Compound A-16]					IC50 [1, 5]: < 1 µM; IC50 ([2]; isolated enzyme): < 1 µM; IC50 ([4]; isolated enzyme): < 1 µM
O=C(Nc1cccc(-c2nsc(Nc3ccc4[nH]ncc4c3Cl)n2)c1)c1cnco1 [Compound A-17]					IC50 [1, 5]: < 1 µM; IC50 ([2]; isolated enzyme): < 1 µM; IC50 ([4]; isolated enzyme): < 1 µM
Cc1cc(C(=O)Nc2cccc(-c3nsc(Nc4ccc5[nH]ncc5c4Cl)n3)c2)on1 [Compound A-18]					IC50 [1, 5]: < 1 µM; IC50 ([2]; isolated enzyme): < 1 µM; IC50 ([4]; isolated enzyme): < 1 µM
O=C(Nc1cc(-c2nsc(Nc3ccc4[nH]ncc4c3Cl)n2)ccn1)N1CCOCC1 [Compound A-19]					IC50 [1, 5]: < 1 µM; IC50 ([2]; isolated enzyme): < 1 µM; IC50 ([4]; isolated enzyme): < 1 µM
Cn1cc(CC(=O)Nc2cccc(-c3nsc(Nc4ccc5[nH]ncc5c4Cl)n3)c2)cn1 [Compound A-20]					IC50 [1, 5]: < 1 µM; IC50 ([2]; isolated enzyme): < 1 µM; IC50 ([4]; isolated enzyme): < 1 µM
O=C(Nc1cccc(-c2nsc(Nc3ccc4[nH]ncc4c3Cl)n2)c1)c1cocn1 [Compound A-21]					IC50 [1, 5]: < 1 µM; IC50 ([2]; isolated enzyme): < 1 µM; IC50 ([4]; isolated enzyme): < 1 µM
Cn1cnc(C(=O)Nc2cccc(-c3nsc(Nc4ccc5[nH]ncc5c4Cl)n3)c2)c1 [Compound A-22]					IC50 [1, 5]: < 1 µM; IC50 ([2]; isolated enzyme): < 1 µM; IC50 ([4]; isolated enzyme): < 1 µM
Cn1cncc1C(=O)Nc1cccc(-c2nsc(Nc3ccc4[nH]ncc4c3Cl)n2)c1 [Compound A-23]					IC50 [1, 5]: < 1 µM; IC50 ([2]; isolated enzyme): < 1 µM; IC50 ([4]; isolated enzyme): < 1 µM
CNC(=O)c1cc(-c2nsc(Nc3ccc4[nH]ncc4c3Cl)n2)cn(C)c1=O [IV-2]	< 1	< 1	< 1		IC50 ([3]; numeric bound): > 10 µM
CCCOC(=O)Nc1cc(-c2nsc(Nc3ccc4[nH]ncc4c3Cl)n2)cn(C)c1=O [IV-5]	< 1	< 1	< 1		IC50 ([3]; class symbols): 1 to 15 µM
Cc1cc(NC(=O)c2cncs2)cc(-c2nsc(Nc3ccc4[nH]ncc4c3Cl)n2)n1 [IV-20]		< 1	< 1	> 10	
O=C(NC(CO)CO)c1cc(-c2nsc(Nc3ccc4[nH]ncc4c3Cl)n2)ccc1F [IV-21]	1 to 15	< 1	< 1		
O=C(Nc1cncc(-c2nsc(Nc3ccc4[nH]ncc4c3Cl)n2)c1)c1cnco1 [IV-24]		< 1	> 30	> 10	
Cc1cc(NC(=O)c2cnco2)cc(-c2nsc(Nc3ccc4[nH]ncc4c3Cl)n2)n1 [IV-25]		< 1	< 1	> 10	
COc1ncc(C(=O)Nc2cc(-c3nsc(Nc4ccc5[nH]ncc5c4Cl)n3)ccn2)cn1 [IV-27]		< 1	> 30	> 10	
O=C(Nc1cc(-c2nsc(Nc3ccc4[nH]ncc4c3Cl)n2)ccn1)c1cnco1 [IV-28]		< 1	> 30	> 10	
O=C(NC1CCC1)c1cc(-c2nsc(Nc3ccc4[nH]ncc4c3Cl)n2)ccc1F [IV-30]	< 1	< 1	< 1		
Cn1nccc1C(=O)Nc1cccc(-c2nsc(Nc3ccc4[nH]ncc4c3C#N)n2)c1 [IV-33]		< 1	< 1	> 10	
CC1(C)CN(c2cccc(-c3nsc(Nc4ccc5[nH]ncc5c4C#N)n3)c2)C(=O)O1 [IV-34]	1 to 15	< 1	< 1		
Cn1cc(-c2nsc(Nc3ccc4[nH]ncc4c3Cl)n2)cc(NC(=O)c2ccccc2)c1=O [IV-39]	< 1	< 1	1 to 15		
COc1ccc(C(=O)Nc2cc(C)nc(-c3nsc(Nc4ccc5[nH]ncc5c4Cl)n3)c2)cc1 [IV-43]	1 to 15	> 30	> 30		
O=C(Nc1cc(-c2nsc(Nc3ccc4[nH]ncc4c3Cl)n2)ccn1)c1ccccc1F [IV-60]	1 to 15	> 30	> 30		
COc1cccc(C(=O)Nc2cc(-c3nsc(Nc4ccc5[nH]ncc5c4Cl)n3)ccn2)c1 [IV-64]	< 1	> 30	> 30		
O=C(Nc1cccc(-c2nsc(Nc3ccc4[nH]ncc4c3Cl)n2)c1)c1nc(O)co1 [IV-79]		< 1	< 1	> 10	
COc1cccc(C(=O)Nc2cncc(-c3nsc(Nc4ccc5[nH]ncc5c4Cl)n3)c2)c1 [IV-101]		> 30	> 30	> 10	
COc1ncc(-c2nsc(Nc3ccc4[nH]ncc4c3Cl)n2)cc1NC(=O)c1ccnn1C [IV-106]		> 30	> 30	> 10	
COc1ccc(C(=O)Nc2cc(-c3nsc(Nc4ccc5[nH]ncc5c4Cl)n3)ccn2)cc1 [IV-108]	1 to 15	< 1	> 30		
